“Also recorded” adds a separate entry of the source.
Key:
[1] = Thiol-click (click-to-release) kinetics followed by NMR; type: physicochemical; conditions: for relative reactivity in thiol and amine addition reactions (in words): both thiol and amine addition (FIG. 2B-2C); for thiol-click reaction rate (in words): MeOH-d4, A1:thiol 2:1 (FIG. 2B)
Protocol: (§1) 10 μmol (2 eq.) of A1 molecules was dissolved in single or mixed deuterated solvents (the volume of solvent depends on the solubility of A1). Then, 5 μmol (1 eq.) of 2-(2-Methoxyethoxy) ethanethiol or benzylamine was added to the solution. The reaction was immediately followed by NMR. The final concentration of A1 for each molecule is shown at the end of supplementary information case by case. The conversion of thiol or amine was calculated from the integration of corresponding peaks by NMR and plotted against reaction time.
Compound 1, 2, 3, 4, 5, 8, 11, 12, 13: 10 μmol (2 eq.) of molecule 1, 2, 3, 4, 5, 8, 11, 12, 13 was dissolved in 1000 μL of MeOH-d4. Then, 5 μmol (1 eq.) of thiol was added to the solution. The reaction was immediately followed by NMR.
Compound 6, 7, 9: 10 μmol (2 eq.) of molecule 6, 7, 9 was dissolved in 500 μL of MeOH-d4 and 500 μL of 50 mM pH 7.4 phosphate buffer. Then, 5 μmol (1 eq.) of thiol or amine was added to the solution. The reaction was immediately followed by NMR.
Compound 10: 10 μmol (2 eq.) of molecule 10 was dissolved in 1000 μL of DMSO-d6 and 500 μL of 50 mM pH 7.4 phosphate buffer. Then, 5 μmol (1 eq.) of thiol or amine was added to the solution. The reaction was immediately followed by NMR.
Compound 14, 15, 16: 10 μmol (2 eq.) of molecule 14, 15, 16 was dissolved in dissolved in 500 μL of MeOH-d4 and 500 μL of 50 mM pH 6.2 phosphate buffer. Then, 5 μmol (1 eq.) of thiol or amine was added to the solution. The reaction was immediately followed by NMR.

[2] = Amine-click kinetics followed by NMR; type: physicochemical
Protocol: as §1
• Compound 1, 2, 3, 4, 5, 6, 7, 8, 9, 11, 12, 13: 10 μmol (2 eq.) of molecule 1, 2, 3, 4, 5, 6, 7, 8, 9, 11, 12, 13 was dissolved in 500 μL of MeOH-d4 and 500 μL of 50 mM pH 7.4 phosphate buffer. Then, 5 μmol (1 eq.) of benzylamine was added to the solution. The reaction was immediately followed by NMR.
Compound 10: 10 μmol (2 eq.) of molecule 10 was dissolved in 1000 μL of DMSO-d6 and 500 μL of 50 mM pH 7.4 phosphate buffer. Then, 5 μmol (1 eq.) of benzylamine was added to the solution. The reaction was immediately followed by NMR.
Compound 14, 15, 16: 10 μmol (2 eq.) of molecule 14, 15, 16 was dissolved in 800 μL of MeOH-d4 and 200 μL of 50 mM pH 7.4 phosphate buffer. Then, 5 μmol (1 eq.) of benzylamine was added to the solution. The reaction was immediately followed by NMR.

[3] = Thiol-triggered declick of thiol/amine click products followed by NMR; type: physicochemical
Protocol: Typically, product of thiol-A1 or amine-A1 click product was dissolved in single or mixed deuterated solvents (the volume of solvent depends on the solubility of A1 The volume of solvent depends on the solubility of click product). Then, thiol was added to the solution. The reaction was immediately followed by NMR.
Compound 17: 10 μmol (1 eq.) of 17 was dissolved in 500 μL of MeOH-d4 and 500 μL of 50 mM pH6.8 phosphate buffer. Then, 80 μmol (8 eq.) of thiol was added to the solution. Final concentration of 17 is 10 mM.
Compound 18: 10 μmol (1 eq.) of 18 was dissolved in 500 μL of MeOH-d4 and 500 μL of 50 mM pH7.4 phosphate buffer. Then, 80 μmol (8 eq.) of thiol was added to the solution. Final concentration of 18 is 10 mM.
Compound 19: 10 μmol (1 eq.) of 19 was dissolved in 500 μL of MeOH-d4 and 500 μL of 50 mM pH7.4 phosphate buffer. Then, 10 μmol (0.5 eq.) of thiol was added to the solution. Final concentration of 19 is 10 mM.
Compound 20: 10 μmol (1 eq.) of 20 was dissolved in 1000 μL of MeOH-d4 and 500 μL of 50 mM pH7.4 phosphate buffer. Then, 10 μmol (0.5 eq.) of thiol was added to the solution. Final concentration of 20 is 6.67 mM.
Compound 21: 10 μmol (1 eq.) of 21 was dissolved in 500 μL of MeOH-d4 and 500 μL of 50 mM pH7.4 phosphate buffer. Then, 10 μmol (0.5 eq.) of thiol was added to the solution. Final concentration of 21 is 10 mM. […]

β-lactoglobulin B (βLGb) = molecular target: T1, β-lactoglobulin B (βLGb) (Bos taurus, UniProt P02754); experiment: βLGb labeling, ESI-MS and MS/MS of digests; type: biochemical; conditions: for modification sites / selectivity on βLGb: digest, MS/MS; for time until βLGb fully labelled: excess of reagent, disappearance of unmodified protein peaks in ESI-MS; for number of modifications in βLGb: mass shift, ESI-MS
T1 construct: purchased
T1 sequence (P02754 17-178): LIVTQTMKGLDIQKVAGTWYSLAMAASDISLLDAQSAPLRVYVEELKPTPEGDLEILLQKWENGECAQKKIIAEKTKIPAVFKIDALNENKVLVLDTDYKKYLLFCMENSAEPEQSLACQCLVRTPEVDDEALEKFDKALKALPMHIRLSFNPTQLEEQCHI
Protocol: For βLGb labeling reaction, βLGb was first denatured by 8 M of urea to expose the free cysteine. The denatured protein was then diluted with 50 mM pH 8.0 phosphate buffer, which results in a protein solution concentration of 100 μM. This protein solution was incubated with 20 equivalents of 1 for 5 min or with 20 equivalents of 8 for 40 min at room temperature to obtain the fully modified proteins respectively. After labeling, the reaction mixtures were injected immediately into an HPLC to remove excess labeling reagents and phosphate salts and then later analyzed by ESI-MS.
The labeled βLGb protein samples were first buffer-exchanged using 10K NMWL Amicon Ultra centrifugal filters (Millipore, Burlington, MA) with 100 mM triethylamine acetate (pH 8.0), and reconstituted with 1 M urea before enzymatic digestion. To reduce the disulfide bonds in βLGb, TCEP in water was added at a protein:TCEP molar ratio of 1:20, and the sample was incubated at room temperature for 10 min. To alkylate the reduced cysteines, iodoacetamide in water was added at a protein:iodoacetamide molar ratio of 1:80, and the sample was incubated in the dark at room temperature for 30 min. The denatured, reduced, and alkylated protein samples were then digested with trypsin at an enzyme: substrate ratio of 1:10. After 4 h of digestion at 37° C., the enzyme was separated from the mixture by centrifugation using a 10K NMWL Microcon filter (Millipore, Burlington, MA). The filtrate was then analyzed by LC-MS and LC-MS/MS.
To quench the labeling reaction and to remove excess labeling reagents and buffer salts, a Thermo Scientific Ultimate 3000 HPLC system (Thermo Scientific, Tewksbury, MA) with an OPTI-TRAP C4 reverse phase column (1×8 mm) was used. The protein was eluted using an acetonitrile gradient that increases from 1 to 99% over 12 min at a flow rate of 0.2 mL/min. The labeled protein was collected for proteolytic digestion or intact protein MS characterization.
Mass spectral analyses of the HPLC separated intact protein samples (Myo and βLGb) from the covalent labeling experiments were acquired on a Bruker AmaZon (Billerica, MA) quadrupole ion trap mass spectrometer equipped with an electrospray ionization source. The electrospray needle voltage was kept at 4 kV, and the capillary temperature was set to 250° C. Mass spectra of intact BCA protein samples were acquired on a Thermo Orbitrap Fusion Tribrid (Tewksbury, MA) mass spectrometer. The electrospray ionization source was typically operated at a needle voltage of 3800 V, and the ion transfer tube temperature was set to 325° C.
LC-MS and LC-MS/MS analyses of protein proteolytic fragments were conducted on a Thermo Orbitrap Fusion Tribrid (Tewksbury, MA) mass spectrometer. The electrospray ionization source was typically operated at a needle voltage of 2100 V, and the ion transfer tube temperature was set to 300° C. Tandem mass spectra were collected using CID with a normalized collision energy of 35%. Due to the large number of detectable peaks, an exclusion limit of 60 s was applied after five spectra had been collected for any given peak. The resolution of the Orbitrap was set to 60000.
Raw mass spectral data files were analyzed by Thermo Proteome Discoverer 2.2 software. Spectra were searched against the corresponding protein sequence. Variable modification by certain labeling reagents of the residues and the protein N-terminus was added as a dynamic modification. Other dynamic modifications such as oxidation of methionine and carboxyamidomethylation of cysteine were also used in the searches. Trypsin enzyme cleavage was selected, and a precursor mass tolerance of 10 ppm was used. Identifications of peptides and modifications at high confidence levels were used and were manually checked in all cases.

Myoglobin (Myo) = molecular target: T2, Myoglobin (Myo) (Equus caballus, UniProt P68082); experiment: Myoglobin reversible modification and biophysical characterization; type: biochemical
T2 construct: purchased
T2 sequence (P68082 whole entry): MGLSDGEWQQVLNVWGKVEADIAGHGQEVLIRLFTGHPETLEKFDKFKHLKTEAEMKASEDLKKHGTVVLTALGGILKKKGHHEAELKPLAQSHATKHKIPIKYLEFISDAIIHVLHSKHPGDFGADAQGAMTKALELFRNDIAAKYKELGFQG
Protocol: For Myoglobin (Myo) reversible modification reactions, the modified protein solution was prepared by reacting 100 μM of the Myo with 20 equivalents of 1 for 5 min in 50 mM pH 8.0 phosphate buffer at room temperature. The proteins were collected from HPLC purification from previous modification reactions, and the excess labeling reagents were removed from the reaction mixtures. The collected protein solution was characterized by ESI-MS or other biophysical characterizations such as Circular Dichroism (CD) and Ultraviolet-Visible Spectroscopy (UV-Vis). The same protein solution was also buffer-exchanged using 10K NMWL Amicon Ultra centrifugal filters (Millipore, Burlington, MA) with 50 mM pH 7.4 phosphate buffer to yield a 100 μM solution for further reverse reaction. […] After reverse modification reaction, the reaction mixture was injected to a LC-MS system for intact protein analyses. […]
Far-UV CD analyses were performed on a Jasco J-1500 spectropolarimeter. CD spectra were recorded at room temperature over a scan range of 260 to 200 nm. […]
Temperature dependent CD measurements were also performed for the protein samples to evaluate the thermal stability (melting temperature) of Myo before and after labeling. Ellipticity at 222 nm was recorded every 1° C. from 25° C. to 90° C. […] Samples were measured in triplicates and the results were shown in average values.

C=C(COC(=O)Nc1ccc([N+](=O)[O-])cc1)C(=O)NC [Compound 10]
relative reactivity in thiol and amine addition reactions (in words) [1]: considerably slower than the corresponding acrylates

C=C(C[n+]1ccccc1)C(=O)OC [Compound 4]
thiol-click reaction rate (in words) [1]: much slower
reactivity toward benzylamine (in words) ([2]; pH maintained, deuterated MeOH/buffer mixed media (FIG. 2C)): higher than 5

C=C(C[n+]1ccc(N(C)C)cc1)C(=O)OC [Compound 5]
thiol-click reaction rate (in words) [1]: much slower; also recorded: faster than 4

C=C(COC(C)=O)C(=O)NC [Compound 9]
relative reactivity in thiol and amine addition reactions (in words) [1]: considerably slower than the corresponding acrylates

C=C(CN(CC(=C)C(=O)OC)Cc1ccccc1)C(=O)OC [Compound 23]
benzylamine (29) released in declick ([3]; 2 equivalents of T2, MeOH-d4 / 50 mM pH 7.4 phosphate buffer 2:1): More than 80%

C=C(C[N+](CC)(CC)CC)C(=O)OC [Compound 1]
modification sites / selectivity on βLGb (β-lactoglobulin B (βLGb)): non-selective; also recorded: modifications of other nucleophilic residues including lysine, tyrosine and threonine
time until βLGb fully labelled (β-lactoglobulin B (βLGb)): ≤ 5 min
number of modifications in βLGb (β-lactoglobulin B (βLGb)): one to four
time for completion of reaction with the thiol ([1]; 1H NMR, 0.5 equivalent of thiol, 50 mM pH 7.4 phosphate buffer (FIG. 7)): 3 min
time for completion of reaction with benzylamine ([2]; pH 7.4): ~50 min
reversal of myoglobin modification by thiol (Myoglobin (Myo); 10 equivalents of thiol for 2 hours): reversed to unmodified myoglobin
modifications on myoglobin (Myoglobin (Myo); treated with 1, ESI-MS): Multiple modifications

C=C(C[N+](CC)(CC)CC)C(=O)NC [Compound 8]
modification sites / selectivity on βLGb (β-lactoglobulin B (βLGb)): only the free cysteine site was modified
time until βLGb fully labelled (β-lactoglobulin B (βLGb)): ≤ 40 min
number of modifications in βLGb (β-lactoglobulin B (βLGb)): one
relative reactivity in thiol and amine addition reactions (in words) [1]: considerably slower than the corresponding acrylates; also recorded: less reactive than ester 1

C=C(CSCCOCCOC)C(=O)OC [Compound 17]
originally clicked T2 released in declick ([3]; 8 equivalents of ethanethiol (T1), MeOH-d4 / 50 mM pH 6.8 phosphate buffer 1:1): 70%

Source: patent US12215078B2, “Compositions and methods for protein labeling, modification, analysis, and targeted delivery” (University of Massachusetts, priority 2018, dated 2025)
